Counter-ions that a name gives are not always drawn.

The subject of the experiment is PDE IV. Kind of experiment: Inhibition of the PDE IV activity (method of Bauer and Schwabe, adapted to microtiter plates). It is filed as biochemical.

Consider `COc1ccc(-c2nc(-c3ccncc3)cs2)c2c1OC1(CCCC1)C2` [Compound 2, 4-[2-(2,3-Dihydro-7-methoxybenzofuran-2-spiro-1'-cyclopentan-4-yl)thiazol-4-yl]pyridinehydrobromide], for which the “-log IC50” value is given as 7.09. The value for `COc1ccc(-c2nc(-c3cccnc3)cs2)c2c1OC1(CCCC1)C2` [Compound 1, 3-[2-(2,3-Dihydro-7-methoxybenzofuran-2-spiro-1'-cyclopentan-4-yl)thiazol-4-yl]pyridine] was 7.75.

(Values after US6011037A, “Thiazole derivatives with phosphodiesterase-inhibiting action” (Byk Gulden Lomberg Chemische Fabrik GmbH, priority 1996, dated 2000).)
